The target of series [1] is T1, human phosphodiesterase type 2 (source: U-937 cells) (Homo sapiens, UniProt O00408).
T1 construct: human phosphodiesterase type 2 (source: U-937 cells); endogenous in cells; host or cells: U-937 cells
Kind of series: PDE2 inhibition, [3H]cAMP hydrolysis, scintillation. It is filed as biochemical. Conditions: substrate [3H]cAMP+cAMP 1 μM, 30 minutes at 30° C.
Experimental: This novel family of compounds was tested as an inhibitor of human phosphodiesterase type 2 (source: U-937 cells) by following the method described by Torphy, T. J., Zhou, H. L. and Cieslinski, L. B. (J. Pharmacol. Exp. Ther., 1992, 263, 1195-1205). […] A quantitative measurement of the hydrolysis product [3H]-5′-AMP was determined by scintillation.

A further series has as its system PDE1 (bovine). Kind of series: PDE1 inhibition (selectivity). It is filed as biochemical. Conditions: substrate [3H]cAMP+cAMP 1 μM, 30 minutes at 30° C. From the text: (§1) cyclic nucleotide phosphodiesterases: PDE1 (bovine), PDE3 (human), PDE5 (human) and PDE6 (bovine), by following the methods described, respectively, by: (i, PDE1) Nicholson C. D., JACKMAN S. A. and WILKE R. (Brit. J. Pharmacol. 1989, 97, 889-897); (ii, PDE3 and PDE5) Weishaar, R. E., Burrows, S. D., Kobylarz, D. C., Quade, M. M. and Evans, D. B. (Biochem. Pharmacol., 1986, 35, 787-800); (iii PDE6) Ballard, A. S., Gingell, C. J., Tang, K., Turner, L. A., PRICE, M. E. (J. Urol, 1998, 159, 2164-2171). […] In the case of PDE5 and PDE 6, the substrate used is ([3H]cGMP+cGMP) at a concentration of 1 μM for PDE5 and 2 μM for PDE6. A quantitative measurement of the hydrolysis products [3H]-5′-AMP and [3H]-5′-GMP was determined by scintillation.

The test system of a further series is motoneurons. As to the kind of experiment: Motoneuron apoptosis induced by peroxynitrite. It is filed as cell-based. Conditions: concentration of 1 mM. How it is done: This test was carried out according to the protocol described by Cassina P. et al. (J. Neurosci. Res. 2002 67(1): 21-9). Briefly, the oxidative stress mediated by nitric oxide and its toxic metabolite, peroxynitrite, has been associated with motoneuron degeneration, in particular in amyotrophic lateral sclerosis. The astrocytes of the spinal cord respond to extracellular concentrations of peroxynitrite by adopting a phenotype which is cytotoxic for the motoneurons. In this model of apoptosis induced by peroxynitrite, the compound sodium 4-[[1-(oxo)-3-(4-oxopyrazolo[1,5-a]-1,3,5-triazin-8-yl)propyl]amino]benzoate (Ia5) protects more than 60% of the neurons at a concentration of 1 mM.

For series [2], the system named is neurons cultured from fetal rat brain cortex. Kind of series: Neurite development in primary neuron cultures from fetal rat brain cortex. It is filed as cell-based. On the procedure: FIG. 1 represents the effect of the molecule Ia5 on neurons in culture. The neurons are cultured in Neurobasal medium from fetal rat brain cortex according to the procedure described in example 4 and are photographed without staining 17 days after being placed in culture. Culture A is a control culture without compound. The molecule Ia5 was added to culture B on the 8th day after the placing in culture, at a concentration of 50 μM.
Compounds according to the invention were evaluated for their neurotrophic properties. The idea is therefore to observe the behavior of a neuron cell culture in the absence and presence of such molecules. The molecule called Ia5 used during this example is a molecule having the general structure Ic1, where n=2 and m=0, in the form of a sodium salt.
The adult animals are mated and the female rats are separated the following day. After 16 days, the gestating rats undergo a cesarean and the fetuses are placed in a Petri dish 100 mm in diameter. They are transferred, under a laminar flow hood, into sterile medium. The fetuses are isolated by units and are dissected under a binocular magnifying lens in sterile medium. The cerebral cortex is isolated and placed in a tube containing Neurobasal medium without antibiotic. […] The cells are counted using a Mallassez hematometer in the presence of trypan blue in order to determine the cell viability. […]

Series [3] relates to rat embryonic motoneuron cells. Kind of series: Apoptosis induced by elimination of BDNF in primary motoneuron cultures. It is filed as cell-based. Conditions: BDNF deprivation; concentration of 1 mM. On the procedure:
This test was carried out according to the protocol described by Estevez A. G. et al. (J. Neurosci. 1998, 18(3), 923-931). Briefly, when primary cultures of rat embryonic motoneuron cells are deprived of brain-derived neurotrophic factor (BDNF), an induction of neuronal nitric oxide synthase (NOS) was observed, resulting in the gradual death of the neurons by apoptosis: between 18 and 24 hours after having realized the biological preparation, more than 60% of the neurons die. In this model of induced apoptosis, the compound sodium 4-[[1-(oxo)-3-(4-oxopyrazolo[1,5-a]-1,3,5-triazin-8-yl)propyl]amino]benzoate (Ia5) protects more than 70% of the neurons at a concentration of 1 mM.

The next series relates to TNFα. Kind of series: TNFα in supernatants of LPS-activated venous blood mononuclear cells (PBMCs), EIA. It is filed as cell-based. Conditions: PBMC, LPS 1 μg/ml, 24 hours incubation. On the procedure:
The compounds according to the invention were evaluated for their anti-inflammatory properties on venous blood mononuclear cells (PBMCs). More particularly, the cells were incubated for 24 hours in the presence of the molecule tested, after activation with lipopolysaccharide (LPS) (1 μg/ml) according to the protocol described by Schindler, R., Mancilla, J., Endres, S., Ghorbani, R., Clark, S. C. and Dinarello, C. A. (Blood, 1990, 75, 40-47). After incubation, the TNFα concentrations were measured in the culture supernatants by the EIA method.

A further series concerns the target T2, PDE6 (bovine) (Bos taurus, UniProt P11541+P23439).
T2 sequence (P11541 2-856): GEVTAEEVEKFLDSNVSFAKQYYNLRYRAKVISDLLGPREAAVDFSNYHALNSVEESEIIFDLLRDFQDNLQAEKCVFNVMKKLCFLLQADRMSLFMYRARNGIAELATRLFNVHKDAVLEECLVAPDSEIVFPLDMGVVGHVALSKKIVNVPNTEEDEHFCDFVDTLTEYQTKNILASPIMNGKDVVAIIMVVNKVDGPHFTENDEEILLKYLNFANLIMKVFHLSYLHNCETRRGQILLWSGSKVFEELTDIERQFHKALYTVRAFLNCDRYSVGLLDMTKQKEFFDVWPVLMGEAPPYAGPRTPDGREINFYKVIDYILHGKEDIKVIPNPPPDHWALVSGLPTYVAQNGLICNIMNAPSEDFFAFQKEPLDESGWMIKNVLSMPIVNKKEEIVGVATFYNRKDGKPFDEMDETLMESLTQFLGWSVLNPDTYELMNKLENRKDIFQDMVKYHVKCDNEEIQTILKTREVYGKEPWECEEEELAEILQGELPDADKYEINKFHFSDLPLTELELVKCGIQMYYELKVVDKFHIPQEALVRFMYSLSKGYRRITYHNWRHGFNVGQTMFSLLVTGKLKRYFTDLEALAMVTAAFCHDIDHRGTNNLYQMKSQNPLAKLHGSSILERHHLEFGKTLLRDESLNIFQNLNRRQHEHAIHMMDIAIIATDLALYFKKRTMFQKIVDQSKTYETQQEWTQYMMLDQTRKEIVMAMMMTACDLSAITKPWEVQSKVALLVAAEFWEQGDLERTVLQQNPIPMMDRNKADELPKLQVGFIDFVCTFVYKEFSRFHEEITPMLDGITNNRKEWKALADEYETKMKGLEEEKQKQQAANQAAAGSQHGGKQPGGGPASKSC
T2 sequence (P23439 2-850): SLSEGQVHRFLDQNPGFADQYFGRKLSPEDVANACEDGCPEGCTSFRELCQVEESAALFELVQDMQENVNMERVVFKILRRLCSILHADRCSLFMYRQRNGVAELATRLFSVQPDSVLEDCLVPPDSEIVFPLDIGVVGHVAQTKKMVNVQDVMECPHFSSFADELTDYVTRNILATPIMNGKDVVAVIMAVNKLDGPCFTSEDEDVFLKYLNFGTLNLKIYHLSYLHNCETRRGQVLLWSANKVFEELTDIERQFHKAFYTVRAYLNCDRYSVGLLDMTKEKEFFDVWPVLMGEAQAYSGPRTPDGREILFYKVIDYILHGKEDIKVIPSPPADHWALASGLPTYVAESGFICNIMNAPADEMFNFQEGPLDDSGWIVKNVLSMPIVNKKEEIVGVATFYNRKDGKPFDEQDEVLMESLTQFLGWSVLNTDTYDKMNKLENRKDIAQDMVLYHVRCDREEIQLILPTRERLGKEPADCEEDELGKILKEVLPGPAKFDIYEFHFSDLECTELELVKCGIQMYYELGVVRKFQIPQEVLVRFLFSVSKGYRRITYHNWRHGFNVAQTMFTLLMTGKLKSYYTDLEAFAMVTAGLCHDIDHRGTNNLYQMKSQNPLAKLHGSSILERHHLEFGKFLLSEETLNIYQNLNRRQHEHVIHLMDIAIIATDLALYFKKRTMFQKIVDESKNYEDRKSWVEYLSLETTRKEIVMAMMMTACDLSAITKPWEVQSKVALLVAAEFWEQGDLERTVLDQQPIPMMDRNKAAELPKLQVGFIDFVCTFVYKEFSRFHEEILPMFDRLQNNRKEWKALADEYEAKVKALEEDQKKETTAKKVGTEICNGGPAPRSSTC
T2 sequence (P04972 1-87 partner): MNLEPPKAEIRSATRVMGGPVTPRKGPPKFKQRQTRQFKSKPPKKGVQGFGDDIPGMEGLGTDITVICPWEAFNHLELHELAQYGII
Kind of series: PDE6 inhibition (selectivity). It is filed as biochemical. Conditions: substrate [3H]cGMP+cGMP 2 μM.
Text: as §1

SMILES strings stand for the structures.

T1 sequence (O00408 whole entry): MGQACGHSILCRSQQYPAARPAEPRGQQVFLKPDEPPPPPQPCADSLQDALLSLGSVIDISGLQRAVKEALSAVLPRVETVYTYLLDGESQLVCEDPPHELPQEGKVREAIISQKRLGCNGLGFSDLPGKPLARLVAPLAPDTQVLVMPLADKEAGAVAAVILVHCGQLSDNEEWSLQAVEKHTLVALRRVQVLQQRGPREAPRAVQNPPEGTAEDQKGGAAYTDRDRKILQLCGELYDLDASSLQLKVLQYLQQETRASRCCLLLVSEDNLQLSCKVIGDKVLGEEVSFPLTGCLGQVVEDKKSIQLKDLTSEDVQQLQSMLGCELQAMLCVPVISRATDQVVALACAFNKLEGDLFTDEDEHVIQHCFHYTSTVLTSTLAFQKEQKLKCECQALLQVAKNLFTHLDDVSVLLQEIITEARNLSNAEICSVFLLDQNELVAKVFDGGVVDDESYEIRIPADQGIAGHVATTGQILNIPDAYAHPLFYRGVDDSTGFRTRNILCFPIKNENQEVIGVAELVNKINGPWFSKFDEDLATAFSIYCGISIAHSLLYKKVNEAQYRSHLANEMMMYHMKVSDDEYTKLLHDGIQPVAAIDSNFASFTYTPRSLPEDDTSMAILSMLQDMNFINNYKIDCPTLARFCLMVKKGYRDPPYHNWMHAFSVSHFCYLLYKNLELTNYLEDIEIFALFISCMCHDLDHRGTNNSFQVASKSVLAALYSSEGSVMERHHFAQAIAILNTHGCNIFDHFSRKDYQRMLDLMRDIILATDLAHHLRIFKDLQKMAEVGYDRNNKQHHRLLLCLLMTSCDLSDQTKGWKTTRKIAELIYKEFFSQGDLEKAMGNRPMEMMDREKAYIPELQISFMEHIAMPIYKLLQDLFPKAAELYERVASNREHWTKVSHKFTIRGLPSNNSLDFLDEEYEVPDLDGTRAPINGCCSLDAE

Take `CCCCCC[C@@H]([C@@H](C)O)n1cnc2c(N)ncnc21` (racemic) [EHNA]: the IC50 in series [1] is 2100 nM.

In the series with PDE1 (bovine), `COCc1nc2c([nH]1)c(=O)n(C)c(=O)n2CC(C)C` [8-methoxy-IBMX] returned an IC50 of 2900 nM. Turning to `O=C(CCc1cnn2c(=O)[nH]cnc12)Nc1ccc(C(=O)[O-])cc1.[Na+]` [Ia5, Sodium 4-[[1-(oxo)-3-(4-oxopyrazolo[1,5-a]-1,3,5-triazin-8-yl)propyl]amino]benzoate], the neurons protected result in the series on motoneurons is “more than 60%”; in series [3] it was “more than 70%”. In series [2] (50 μM added on the 8th day, photographed 17 days after being placed in culture), the “neurite morphology in culture B compared with control A (FIG. 1)” value is “thickening and an elongation of the neurites”. In addition, in series [2] (primary fetal rat cortex neurons, test molecule at 0.1, 1 and 10 μmol/l), the “neurite development compared with control cells” value is recorded as “greater neurite development than in the cells acting as control”. `CCCc1nc(N(C)c2ccccc2)n2ncc(C(O)c3ccoc3)c2n1` (stereo not shown) [Ib15, 8-[(3-Furyl)(hydroxy)methyl]-4-(N-methyl-N-phenylamino)-2-n-propylpyrazolo[1,5-a]-1,3,5-triazine]: the melting point was 142 to 144 °C. Molecule `CCCc1nc(N(C)c2ccccc2)n2ncc(C(O)c3cccs3)c2n1` (stereo not shown) [Ib18, 8-[(Hydroxy)(2-thienyl)methyl]-4-(N-methyl-N-phenylamino)-2-n-propylpyrazolo[1,5-a]-1,3,5-triazine] yielded a melting point of 150 to 152 °C. The molecule `C[C@@H]1C[C@H]2[C@@H]3CCC4=CC(=O)C=C[C@]4(C)[C@@]3(F)[C@@H](O)C[C@]2(C)[C@@]1(O)C(=O)CO` [dexamethasone] gave an IC50 with TNFα of 4600 nM. This counts as single-digit micromolar. Turning to `CCCOc1ccccc1-c1nc2nn[nH]c2c(=O)[nH]1` [zaprinast], the IC50 against PDE6 (bovine) came out at 380 nM.

For orientation: IC50 means the concentration that inhibits the measured activity by half. Low values mean higher potency, high ones lower potency. By melting point is commonly meant the temperature, or range, at which the solid turns liquid.

For the origin of these results see patent US20090105261A1, “Novel substituted pyrazolo[1,5<I>A</I>]-1,3,5-Triazine derivatives and their analogues, pharmaceutical compositions containing same, use thereof as medicine and methods for preparing same” (GREENPHARMA, priority 2002, published 2009).
